System: termites
Experiment: Repellency to termites (termites moving through the treated area)
Format: in vivo
Details: termites do not detect the active ingredient in the treated area and readily move through it, picking up a lethal dose
Excerpt: […], and in particular deltamethrin, an α-cyano-pyrethroid, are the preferred active ingredients of the insecticide formulation of this invention and provides the formulation with its insecticidal activity. The International Union of Pure and Applied Chemistry name for Deltamethrin is (S)-α-cyano-3-phenoxybenzyl (1R)-cis-3-(2,2-dibromovinyl)-2,2-dimethylcyclopropane-carboxylate. Deltamethrin is produced by AgrEvo Environmental Health of 95 Chestnut Ridge Road, Montvale, N.J., 07645. The concentration of deltamethrin in the insecticide formulation may range from 0.01 to 2% by weight of the insecticide without propellant, but is preferably from 0.01 to 0.5% by weight of the insecticide without propellant and most preferably from 0.10 to 0.30% by weight of the insecticide without the propellant.

## CC1(C)[C@H](C(=O)O[C@H](C#N)c2cccc(Oc3ccccc3)c2)[C@@H]1C=C(Br)Br [deltamethrin, (S)-α-cyano-3-phenoxybenzyl (1R)-cis-3-(2,2-dibromovinyl)-2,2-dimethylcyclopropane-carboxylate]
  Repellency to termites: non-repellant to termites
